Test results reported in patent US20020010182A1, “Piperazine derivatives as tachykinin antagonists” (FUJISAWA PHARMACEUTICAL CO., LTD., priority 1995, published 2002).

What was measured:
emesis in the ferret = test: Emesis in the ferret (copper sulfate induced); type: in vivo; settings: i.p. dose of 3.2 and/or 10 mg/kg, 30 min before intra-gastric copper sulfate (40 mg/kg/ml); retching and vomiting observed for 30 min
Experimental: Individually housed adult male ferrets (Marshall Farms, 1.4 to 2.2 kg) were given an i.p. injection of a solution containing a test compound 30 Min later the emetic responses (retching and vomiting) were induced by administration of intra-gastric copper sulfate (40 mg/kg/ml) and observed for the next 30 min. The timing and number of retches and vomits observed were recorded for each animal. An individual animal was tested with at least 10 days between experiments.

h-NK1 receptors = molecular target: T1, h-NK1 receptors (Homo sapiens, UniProt P25103); test: Evaluation of NK1 antagonist transport efficiency to the central nervous system using a h-NK1 receptor binding assay; settings: 5 min, brain extract of male SD rats 5 min after i.v. injection of test compound, CHO cell membranes expressing h-NK1, read-out: inhibition rate of 125I-BH-Substance P binding to h-NK1 receptors
T1 construct: expressed in transfected cells; host or cells: CHO cells (permanent expression), crude cell membranes
T1 sequence (P25103 whole entry): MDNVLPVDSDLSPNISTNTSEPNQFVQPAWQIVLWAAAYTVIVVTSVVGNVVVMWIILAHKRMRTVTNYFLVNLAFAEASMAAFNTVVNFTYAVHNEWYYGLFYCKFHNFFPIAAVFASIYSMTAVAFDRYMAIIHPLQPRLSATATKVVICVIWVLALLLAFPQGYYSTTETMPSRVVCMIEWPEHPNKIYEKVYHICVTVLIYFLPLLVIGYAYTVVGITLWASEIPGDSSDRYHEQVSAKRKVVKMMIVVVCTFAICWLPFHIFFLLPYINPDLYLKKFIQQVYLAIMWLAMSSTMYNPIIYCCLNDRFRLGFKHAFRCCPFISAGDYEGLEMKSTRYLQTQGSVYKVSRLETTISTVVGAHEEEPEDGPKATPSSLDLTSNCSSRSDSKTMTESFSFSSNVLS
Procedure, shortened: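 Male SD rats dosed i.v. at 1 mg/kg; brain removed 5 min later after saline perfusion, homogenized, extracted with ethyl acetate. Extract competed against 0.1 nM 125I-BH-Substance P on CHO h-NK1 membranes, 22 °C, 90 min, pH 7.4 Mn2+ buffer; specific binding defined with 3 μM unlabeled Substance P.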

melting point | inhibition at 1 mg/kg (h-NK1 receptors) [%] | SMILES | inhibition rate of emesis in the ferret (emesis in the ferret) [%]
272 °C (dec.) | > 80 | Cc1ccc(C[C@@H]2CN(CCCN3CCSCC3)CCN2C(=O)c2cc(C(F)(F)F)cc(C(F)(F)F)c2)cc1C.Cl.Cl [24-(2), (2R)-1-[3,5-Bis(trifluoromethyl)benzoyl]-2-(3,4-dimethylbenzyl)-4-(3-thiomorpholinopropyl) piperazine dihydrochloride] | 100
170 to 182 °C | > 80 | Cl.Cl.O=C(c1cc(C(F)(F)F)cc(C(F)(F)F)c1)N1CCN(CCN2CCSCC2)C[C@H]1Cc1c[nH]c2ccccc12 [Example 37-(6), (2R)-4-(2-Thiomorpholinoethyl)-1-[3,5-bis (trifluoromethyl)benzoyl]-2-(1H-indol-3-ylmethyl) piperazine dihydrochloride] | 100

SMILES | melting point | inhibition at 1 mg/kg (h-NK1 receptors) [%] | inhibition rate of emesis in the ferret (emesis in the ferret) [%]
Cl.Cl.O=C(c1cc(C(F)(F)F)cc(C(F)(F)F)c1)N1CCN(CCCN2CC3CCC(CC3)C2)C[C@H]1Cc1c[nH]c2ccccc12 [Example 22, (2R)-4-[3-(3-azabicyclo(3.2.2]non-3-yl)propyl]-1-[3,5-bis(trifluoromethyl)benzoyl]-2-(1H-indol-3-ylmethyl) piperazine dihydrochloride] | 194 to 202 °C | > 80 | 100
